# Where “and” joins values, the source holds several entries; their conditions need not be identical. Equal values may be shown once.
# Legend:
# VSV = format: cell-based; conditions: 80 μM TO, 7.4 J/cm^2 cool white light, 20% hematocrit RBCs, 60 min incubation
# PRV = format: cell-based, Pseudorabies virus; conditions: 80 μM TO, 7.4 J/cm^2 cool white light, 20% hematocrit RBCs, 60 min incubation
# BVDV = format: cell-based, Bovine viral diarrhea virus
# extracellular HIV = format: cell-based; conditions: 80 μM TO, 7.4 J/cm^2 cool white light, 20% hematocrit RBCs, 60 min incubation
# intracellular HIV = test: HIV photoinactivation in RBC suspension, CCRF-CEM coculture and p24 ELISA; format: cell-based, HIV-1; conditions: 80 μM TO, 7.4 J/cm^2 cool white light, 20% hematocrit RBCs, 60 min incubation
# bacteriophage φ6 = test: Bacteriophage photoinactivation in RBC suspension, plaque assay; format: cell-based; conditions: 80 μM TO, 7.4 J/cm^2 cool white light, 20% hematocrit RBCs, 60 min incubation
# Protocol: Leukodepleted 20% hematocrit RBCs suspended in Erythrosol (RAS-2) were oxygenated, inoculated with test organisms, incubated with TO, and illuminated with 7.4 J/cm^2 of cool white light. Control and treated samples were analyzed by appropriate assay. Identically prepared, but uncontaminated samples were phototreated, concentrated to 45% hematocrit, and assayed for potassium leakage, hemolysis and ATP during storage.
# (§1) Viruses or bacteria were added into approximately 50-60% hematocrit RBCs with subsequent addition of additive solution and TO to obtain 20% final hematocrit containing 80 μM of the dye. The final volume of the pathogen spike was equal to 10% for mammalian viruses and equal to 1% for bacteriophage and bacteria. […] A fluence rate of 8.2 mW/cm^2 was measured by an optical power meter (model 371, United Detector Technology, Hawthorn, Calif.) equipped with a silicone diode detector and radiometric filter (400-1000 nm, model 115-9, United Detector Technology). […]
# All virus assays were individually tested for cytotoxicity and interference. […] Log10 reduction values were calculated by subtracting the log10 titer/mL of RBCs with viable virus after illumination, or the log10 limit of detection/mL of RBCs without viable virus after illumination, from the measured log10 titer/mL of unilluminated RBCs.
# [1] = system: Staphylococcus epidermidis; test: Bacteria photoinactivation in RBC suspension, colony count; format: cell-based; conditions: 80 μM TO, 7.4 J/cm^2 cool white light, 20% hematocrit RBCs, 60 min incubation
# Staphylococcus aureus = test: as above; format: cell-based; conditions: 80 μM TO, 7.4 J/cm^2 cool white light, 20% hematocrit RBCs, 60 min incubation
# Deinococcus radiodurans = test: as above; format: cell-based; conditions: 80 μM TO, 7.4 J/cm^2 cool white light, 20% hematocrit RBCs, 60 min incubation
# Yersinia enterocolitica = test: as above; format: cell-based; conditions: 80 μM TO, 7.4 J/cm^2 cool white light, 20% hematocrit RBCs, 60 min incubation
# Pseudomonas fluorescens = test: as above; format: cell-based; conditions: 80 μM TO, 7.4 J/cm^2 cool white light, 20% hematocrit RBCs, 60 min incubation
# Serratia liquefaciens = test: as above; format: cell-based; conditions: 80 μM TO, 7.4 J/cm^2 cool white light, 20% hematocrit RBCs, 60 min incubation
# Serratia marcescens = test: as above; format: cell-based; conditions: 80 μM TO, 7.4 J/cm^2 cool white light, 20% hematocrit RBCs, 60 min incubation
# Escherichia coli = test: as above; format: cell-based; conditions: 80 μM TO, 7.4 J/cm^2 cool white light, 20% hematocrit RBCs, 60 min incubation
# enveloped viruses = format: cell-based
# bacteria = test: Bacteria photoinactivation, tested species overall; format: cell-based; conditions: 80 μM TO, 7.4 J/cm^2 cool white light
# Protocol: as §1, with “bacteria. RBC suspensions containing dye were incubated for 60 minutes and 2 ml aliquots were transferred to polystyrene culture dishes (50 mm bottom diameter) to produce a 1 mm blood film. For some bacterial experiments, RBC suspensions were incubated for different times prior to illumination.” for “bacteria.”
# We prepared bacterial stocks by inoculating a single colony into 5 mL of Luria broth (LB) and incubating cultures overnight under aerobic conditions at 30 or 37° C., depending on the strain. […] Colonies were counted after 24-72 hours of incubation at 30 or 37° C., with time and incubation temperature depending on the strain. Colonies were counted from all plates that contained between 1 and 750 colonies per plate. […]
# model viruses = conditions: dimethylmethylene blue phototreatment with quinacrine as competitive membrane binding inhibitor; cited from earlier work
compound,measurement,setting,value
"CN1/C(=C/c2cc[n+](C)c3ccccc23)Sc2ccccc21.Cc1ccc(S(=O)(=O)[O-])cc1 [TO, 1-methyl-4-[(3-methyl-2(3H)-benzothiazolylidene)methyl]quinoliniump-tosylate]","Inactivation Log10, VSV",VSV,7.1 log10 and 7.1±0.2 log10 and 7.1 ± 0.2 (n = 4) log10
same,"Inactivation Log10, PRV",PRV,5.4 log10 and 5.4±0.7 log10 and 5.4 ± 0.7 (n = 4) log10
same,"Inactivation Log10, BVDV",BVDV,6.2 log10 and 6.2±0.1 log10 and 6.2 ± 0.1 (n = 3) log10
same,"Inactivation Log10, extracellular HIV",extracellular HIV,>6.5 (n = 3) log10
same,"Inactivation Log10, intracellular HIV",intracellular HIV,>6.3 (n = 3) log10
same,"Inactivation Log10, bacteriophage φ6",bacteriophage φ6,6.7 log10 and 6.7±0.7 log10 and 6.7 ± 0.7 (n = 3) log10
same,"Inactivation Log10, Staphylococcus epidermidis",[1],>7.0 (n = 4) log10
same,"Inactivation Log10, Staphylococcus aureus",Staphylococcus aureus,2.4 log10 and 2.4 ± 0.7 (n = 4) log10
same,"Inactivation Log10, Deinococcus radiodurans",Deinococcus radiodurans,>6.8 (n = 3) log10
same,"Inactivation Log10, Yersinia enterocolitica",Yersinia enterocolitica,6.4 log10 and 6.4 ± 2.0 (n = 4) log10
same,"Inactivation Log10, Pseudomonas fluorescens",Pseudomonas fluorescens,2.3 log10 and 2.3 ± 1.2 (n = 4) log10
same,"Inactivation Log10, Serratia liquefaciens",Serratia liquefaciens,2.8 log10 and 2.8 ± 0.6 (n = 4) log10
same,"Inactivation Log10, Serratia marcescens",Serratia marcescens,3.5 log10 and 3.5 ± 2.5 (n = 3) log10
same,"Inactivation Log10, Escherichia coli",Escherichia coli,5.3 log10 and 5.3 ± 2.0 (n = 4) log10
same,inactivation of tested enveloped viruses,enveloped viruses,5.1-7.4 log10
same,"inactivation of bacteria, another four (more resistant) species",bacteria,2-3 log10
same,"inactivation of bacteria, four (sensitive) species",bacteria,5-7 log10
same,day 42 hemolysis in ADSOL additive solution,RBCs,1.6±0.6%
same,"hemolysis levels during storage, TO versus TP phototreated RBCs",RBCs,similar
same,"hemolysis on day 42, TO maintained in the dark",RBCs,0.31%
Cc1cc(=[N+](C)C)cc2sc3cc(N(C)C)cc(C)c3nc1-2.[Cl-] [dimethylmethylene blue],reduction of model viruses,model viruses,> 6 log10
